Measurements taken from patent publication US4209441A, “Anti-gastric secretion polypeptide” (American Home Products Corporation, priority 1979, dated 1980).
Counter-ions that a name gives are not always drawn. Bridge positions count the residues as written; N and C are the ends. Square brackets hold non-standard residues; d marks the D form. Peptide text beside a SMILES is read from it.

Key:
Format in all cases: in vivo, rat
insulin = assay: Suppression of insulin in arginine-stimulated rats; conditions: for reduction in insulin in vivo (in words): tested in vivo by standard methods
Procedure: (§1) Albino male rats are administered Nembutol intraperitoneally at a dose of 50 mg/kg. Fifteen minutes later a subcutaneous injection of the test compound or physiological saline is administered. Ten minutes later 0.5 ml. of arginine (300 mg/ml, pH 7.2) is injected into the heart. Five minutes after receipt of the arginine the rats are decapitated and blood is collected into Trasylol-EDTA. An appropriate aliquot is assayed for insulin and glucagon.

glucagon = assay: Suppression of glucagon in arginine-stimulated rats; conditions: for reduction in glucagon in vivo (in words): tested in vivo by standard methods
Procedure: as §1

[1] = system: gastric acid secretion (total acid output); assay: Anti-secretory activity in pylorus-ligated rats (total acid output over four hours); conditions: for Percentage Inhibition (of Total Acid Output): i.d. administration, pylorus-ligated rats, 4 hr, versus control group
Procedure: The polypeptide of this invention was tested and found active parenterally (s.c.) in the following scientifically recognized, standard test for anti-secretory activity;
Male Charles River rats of Sprague-Dawley strain and 190 to 240 gm. body weight are food deprived for 24 hr. with water ad libitum until the test. Groups of ten rats each are assigned to either control or drug treatment. Pyloric ligation was performed under ether anesthesia through a midline laparotomy, and either control vehicle (0.25 methylcellulose) or drug in control vehicle was administered intraduodenally. The rats are sacrificed by CO2 asphyxiation four hours after pyloric ligation. The stomachs are removed and the gastric contents emptied into graduated centrifuge tubes. The gastric samples are centrifuged for 20 min. and those obviously contaminated by food, blood or feces are discarded. The volume of gastric fluid is recorded and the acid concentration of 1.0 ml. sample aliquots is measured by electrometric titration to pH 7.0 with 0.1 N NaOH. The calculated product of gastric volume (ml/4 hr.) and acid concentration (mEq/L) estimates the total acid output (TAO, mEq/4 hr.) over the four-hour test period.
An index of drug gastric antisecretory activity is reported at the end of the example illustrating its production. The results, expressed as percentage inhibition, show the reduction of acid secretion in drug-treated compared to control groups, based upon i.d. administration of 2 mg/kg and 0.5 mg/kg of the tested compound. In addition, the effect of the polypeptide in the control of insulin and glucagon secretion is reported at a dose of 750 micrograms per kilogram.

[2] = listed as compound of this invention
[3] = listed as polypeptide of the invention

SMILES	Insulin (insulin; 750 μg/kg subcutaneous, arginine-stimulated rats, blood 15 min after dosing, control 283 ± 28)	reduction in insulin in vivo (in words) (insulin; [2])	reduction in insulin in vivo (in words) (insulin; [3])	Glucagon (glucagon; 750 μg/kg subcutaneous, arginine-stimulated rats, blood 15 min after dosing, control 55 ± 5)	reduction in glucagon in vivo (in words) (glucagon; [2])	reduction in glucagon in vivo (in words) (glucagon; [3])	Percentage Inhibition (of Total Acid Output) ([1]; 0.5 mg/kg)	Percentage Inhibition (of Total Acid Output) ([1]; 2 mg/kg)	anti-secretory activity (in words) ([1]; parenterally (s.c.))	dose that effectively inhibits secretion of insulin (insulin; same test procedure)	dose that effectively inhibits secretion of glucagon (glucagon; same test procedure)
C[C@H](N)C(=O)NCC(=O)N[C@H]1CSSC[C@@H](C(=O)O)NC(=O)[C@H](CO)NC(=O)[C@H]([C@@H](C)O)NC(=O)[C@H](Cc2ccc(O)cc2)NC(=O)[C@H]([C@@H](C)O)NC(=O)[C@H](CCCCN)NC(=O)[C@@H](Cc2c[nH]c3ccccc23)NC(=O)[C@H](Cc2ccccc2)NC(=O)[C@H](Cc2ccccc2)NC(=O)[C@H](CC(N)=O)NC(=O)[C@H](CCCCN)NC1=O [Example 5, L-alanylglycyl-L-cysteinyl-L-lysyl-L-asparaginyl-L-phenylalanyl-L-phenylalanyl-D-tryptophyl-L-lysyl-L-threonyl-L-tyrosyl-L-threonyl-L-seryl-L-cysteine cyclic (3-14)-disulfide, triacetate-salt] (H-AGCKNFF[dW]KTYTSC-OH; disulfide 3-14)	238 ± 42 μU/ml	no meaningful reduction	without materially affecting	35 ± 9 pg/mL	no meaningful reduction	without materially affecting	38%	68%	active	–	–
C[C@H](N)C(=O)NCC(=O)N[C@H]1CSSC[C@@H](C(=O)O)NC(=O)[C@H](CO)NC(=O)[C@H]([C@@H](C)O)NC(=O)[C@H](Cc2ccccc2)NC(=O)[C@H]([C@@H](C)O)NC(=O)[C@H](CCCCN)NC(=O)[C@H](Cc2c[nH]c3ccccc23)NC(=O)[C@H](Cc2ccccc2)NC(=O)[C@H](Cc2ccccc2)NC(=O)[C@H](CC(N)=O)NC(=O)[C@H](CCCCN)NC1=O [Somatostatin, reference compound]	–	–	–	–	–	–	–	–	–	about 10 micrograms per kilogram	about 10 micrograms per kilogram
